Tests used:
[1] = test system: human gingival fibroblast cells; assay: LDH cytotoxicity in immortalized human gingival fibroblasts; assay type: cell-based
Procedure: Cells were seeded in 48-well plates at a density of 2×10^4 cells/well. When the cells reached confluence, they were treated with different concentrations of HCX, and cytotoxicity was determined.
48 hours after seeding the iHGF cells in 48-well plates, cell inflammation was induced by means of adding 1 μg/ml of P. gingivalis lipopolysaccharide (LPS) (InvivoGen, San Diego, CA, USA) and the cells were treated with different concentrations of HCX (0.00002, 0.0002, 0.002%) in a fibroblast medium with 50 μg/ml of ascorbic acid (Sigma-Aldrich, St. Louis, MO, USA) for 48 hours. Images of the cells were taken with a bright field inverted microscope (Nikon Eclipse TS100) before treatment and 24 hours and 48 hours after treatment.
To estimate the cytotoxicity of the different concentrations of HCX, the presence of lactate dehydrogenase (LDH) in the culture media 48 h after pro-inflammatory stimulation with LPS and treatment with HCX was used as the cell death index. Following the manufacturer's instructions (Cytotoxicity Detection kit, Roche Diagnostics, Mannheim, Germany), LDH activity was determined spectrophotometrically after a 30-minute incubation at room temperature (RT) of 50 μl of culture media and 50 μl of the reaction mixture, measuring nicotinamide adenine dinucleotide (NADH) oxidation at 490 nm in the presence of pyruvate. Results were presented in relation to LDH activity of the media of the cells seeded without treatment (negative control, 0% cell death) and in relation to cells treated with 1% Triton X-100 (positive control, 100% death) using the following equation: Cytotoxicity (%)=[(expected value−negative control)/(positive control−negative control)]×100.
Different hydrogel formulations with and without 0.05% of HCX (HA, GelMa, Alginate and HPMC) and commercial gel containing 0.2% chlorhexidine and unmodified HA (Periokin Hyaluronic 1%, Laboratorios Kin, Commercial HA 0.2% CHX) were used for studies with gingival fibroblasts and S. epidermidis. Cells and bacteria without hydrogels served as negative control (C−). Gels at a concentration of 5% (v/v) were used for cell and bacterial studies.
Immortalized human gingival fibroblasts were cultured like in experiment 1 of section 1.2. The cells were treated with different hydrogel formulations with and without 0.05% of HCX (HA, GelMa, Alginate and HPMC) and commercial gel containing 0.2% chlorhexidine and unmodified HA (Periokin Hyaluronic 1%, Laboratorios Kin, commercial HA 0.2% CHX) in a fibroblast medium for 24 hours (n=4). Cell cytotoxicity was measured, like in experiment 1 of section 1.4.
16.1. […]
Immortalized human gingival fibroblasts were cultured like in experiment 1 of section 1.2. […] Cell cytotoxicity was measured, like in experiment 1 of section 1.4.

S. aureus = assay type: cell-based
Procedure: S. aureus ATCC 29213 was grown from frozen stocks in Luria-Bertani (LB) broth (Scharlab), at 37° C. under aerobic conditions in an orbital shaker (180 rpm). After overnight incubation, 1 mL of bacterial suspensions were incubated with different concentrations of CHX (0.01, 0.005, 0.003, 0.001, 0.0001%) and HCX (0.003, 0.002, 0.001, 0.0002, 0.00002%) for 3 hours at 37° C. under aerobic conditions in an orbital shaker (180 rpm). Bacterial suspension without treatment served as negative control (C−). The optical density (OD) was measured at 600 nm at 0 h and 3 h to determine bacterial proliferation (PowerWave Ht). The bacterial growth rate (μ) was calculated during the exponential growth phase following the equation ln ODt−ln OD0=μ×(t−t0) (n=4). The live/Dead ratio of bacteria was determined using the LIVE/DEAD BacLight bacterial viability kit (Invitrogen), following the manufacturer's instructions. The assays were carried out in triplicate.
The bacteria S. aureus was cultured and treated with different commercial antiseptic gels and HA hydrogel with […] HCX. The gels were tested at a concentration of 5% (v/v), and the experiment was run like in experiment 7, section 7.1.
16.1. […]

For `O=c1c2cc(O)c(O)cc2oc2cc(O)cc(O)c12` [NRT, norathryol, reference compound], the “biocompatibility for the cells (LDH cytotoxicity)” value ([1]; all concentrations tested (0.4-77 μM), 24 h) was “biocompatible” and the antibacterial effect (S. aureus; all concentrations tested (0.4-77 μM), 3 h) was “none of them were antibacterial”.
`COc1c(O)cc2oc3cc(O)c(CC=C(C)C)c(O)c3c(=O)c2c1CC=C(C)C` [aMG, α-Mangostin] was tested, and the toxicity to cells ([1]; 0.002% in solution) was “already toxic”.
With `CC(C)=CCc1c(O)cc(O)c2c(=O)c3cc4c(c(O)c3oc12)OC(C)(C)C=C4` [FXA, Formoxanthone A] the “concentration with antibacterial effect without cytotoxicity” value (S. aureus; S. aureus 3 h together with LDH cytotoxicity in gingival fibroblasts 24 h) was 0.001%.

Reference: patent publication US20250303006A1, “BIOCOMPATIBLE ANTISEPTIC COMPOSITION CONTAINING 9-HYDROXYCALABAXANTHONE AND/OR RELATED XANTHONES” (UNIVERSITAT DE LES ILLES BALEARS, priority 2022, published 2025)
